Read-outs that look alike come from different tables or passages of the source.
Columns and labels:
[1] = molecular target: T1, B-Raf^V600E (Homo sapiens, UniProt P15056, V600E); assay: B-Raf^V600E kinase inhibition (literature data set); type: biochemical; conditions: −log IC50 of literature IC50; for IC50: read-out: B-Raf Actual pIC50 (converted)
Procedure: The IC50 values of all compounds for B-Raf and KDR inhibition were converted to the −log IC50 (pIC50) as dependent variables in the 3D-QSAR analysis. The 3D structures for all 40 compounds were built and minimized, and then Gasteiger-Hückel charge was calculated. All works were all done in SYBYL 6.9 (Tripos, Inc.: St. Louis, MO, USA, 2002).

[2] = molecular target: T1, B-Raf^V600E; set-up: method as in PMID 22376051, PMID 22763369, PMID 22883026, PMID 23906342; conditions: literature values used as 3D-QSAR data set; read-out: Kinase IC50 B-Raf^V600E; cited from earlier work
[3] = molecular target: T2, VEGFR2 (Homo sapiens, UniProt P35968); set-up: method as in PMID 22376051, PMID 22763369, PMID 22883026, PMID 23906342; conditions: literature values used as 3D-QSAR data set; read-out: Kinase IC50 VEGFR2; cited from earlier work
[4] = molecular target: T2, VEGFR2; assay: VEGFR2 (KDR) kinase inhibition (literature data set); type: biochemical; conditions: for KDR Actual pIC50: −log IC50 of literature IC50
Procedure: The IC50 values of all compounds for B-Raf and KDR inhibition were converted to the −log IC50 (pIC50) as dependent variables in the 3D-QSAR analysis. The 3D structures for all 40 compounds were built and minimized, and then Gasteiger-Hückel charge was calculated.

[5] = molecular target: T1, B-Raf^V600E; assay: B-Raf^V600E inhibitory activity of designed new compounds (preliminary pharmacological evaluation); type: biochemical; conditions: for IC50: preliminary biological tests
Source text: (§1) The designed molecules were synthesized and the preliminary pharmacological evaluation would be used to verify the biological activity and our design strategy.

[6] = molecular target: KDR (Homo sapiens, UniProt P35968); assay: KDR inhibitory activity of designed new compounds (preliminary pharmacological evaluation); type: biochemical; conditions: for IC50: preliminary biological tests
Source text: as §1

T1 sequence (P15056 whole entry V600E): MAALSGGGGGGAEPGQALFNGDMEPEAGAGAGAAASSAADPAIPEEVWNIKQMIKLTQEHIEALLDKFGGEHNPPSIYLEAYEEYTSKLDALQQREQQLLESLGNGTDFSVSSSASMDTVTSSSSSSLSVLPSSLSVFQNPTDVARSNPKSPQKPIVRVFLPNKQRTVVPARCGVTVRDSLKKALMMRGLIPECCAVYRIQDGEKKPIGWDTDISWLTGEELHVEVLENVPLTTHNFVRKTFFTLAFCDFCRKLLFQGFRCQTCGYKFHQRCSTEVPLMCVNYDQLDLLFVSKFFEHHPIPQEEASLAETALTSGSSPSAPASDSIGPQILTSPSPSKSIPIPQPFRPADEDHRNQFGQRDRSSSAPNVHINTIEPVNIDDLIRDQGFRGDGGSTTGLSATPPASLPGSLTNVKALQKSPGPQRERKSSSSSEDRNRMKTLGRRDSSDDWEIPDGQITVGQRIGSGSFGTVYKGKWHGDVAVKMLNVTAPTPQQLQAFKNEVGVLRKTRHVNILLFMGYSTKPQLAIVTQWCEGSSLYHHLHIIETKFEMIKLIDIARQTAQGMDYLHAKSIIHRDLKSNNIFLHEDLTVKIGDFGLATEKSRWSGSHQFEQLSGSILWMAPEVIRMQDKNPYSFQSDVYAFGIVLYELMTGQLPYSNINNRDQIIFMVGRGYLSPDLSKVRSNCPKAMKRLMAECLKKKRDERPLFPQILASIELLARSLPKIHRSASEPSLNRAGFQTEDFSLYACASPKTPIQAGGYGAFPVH
Sequence of KDR (P35968 20-1356): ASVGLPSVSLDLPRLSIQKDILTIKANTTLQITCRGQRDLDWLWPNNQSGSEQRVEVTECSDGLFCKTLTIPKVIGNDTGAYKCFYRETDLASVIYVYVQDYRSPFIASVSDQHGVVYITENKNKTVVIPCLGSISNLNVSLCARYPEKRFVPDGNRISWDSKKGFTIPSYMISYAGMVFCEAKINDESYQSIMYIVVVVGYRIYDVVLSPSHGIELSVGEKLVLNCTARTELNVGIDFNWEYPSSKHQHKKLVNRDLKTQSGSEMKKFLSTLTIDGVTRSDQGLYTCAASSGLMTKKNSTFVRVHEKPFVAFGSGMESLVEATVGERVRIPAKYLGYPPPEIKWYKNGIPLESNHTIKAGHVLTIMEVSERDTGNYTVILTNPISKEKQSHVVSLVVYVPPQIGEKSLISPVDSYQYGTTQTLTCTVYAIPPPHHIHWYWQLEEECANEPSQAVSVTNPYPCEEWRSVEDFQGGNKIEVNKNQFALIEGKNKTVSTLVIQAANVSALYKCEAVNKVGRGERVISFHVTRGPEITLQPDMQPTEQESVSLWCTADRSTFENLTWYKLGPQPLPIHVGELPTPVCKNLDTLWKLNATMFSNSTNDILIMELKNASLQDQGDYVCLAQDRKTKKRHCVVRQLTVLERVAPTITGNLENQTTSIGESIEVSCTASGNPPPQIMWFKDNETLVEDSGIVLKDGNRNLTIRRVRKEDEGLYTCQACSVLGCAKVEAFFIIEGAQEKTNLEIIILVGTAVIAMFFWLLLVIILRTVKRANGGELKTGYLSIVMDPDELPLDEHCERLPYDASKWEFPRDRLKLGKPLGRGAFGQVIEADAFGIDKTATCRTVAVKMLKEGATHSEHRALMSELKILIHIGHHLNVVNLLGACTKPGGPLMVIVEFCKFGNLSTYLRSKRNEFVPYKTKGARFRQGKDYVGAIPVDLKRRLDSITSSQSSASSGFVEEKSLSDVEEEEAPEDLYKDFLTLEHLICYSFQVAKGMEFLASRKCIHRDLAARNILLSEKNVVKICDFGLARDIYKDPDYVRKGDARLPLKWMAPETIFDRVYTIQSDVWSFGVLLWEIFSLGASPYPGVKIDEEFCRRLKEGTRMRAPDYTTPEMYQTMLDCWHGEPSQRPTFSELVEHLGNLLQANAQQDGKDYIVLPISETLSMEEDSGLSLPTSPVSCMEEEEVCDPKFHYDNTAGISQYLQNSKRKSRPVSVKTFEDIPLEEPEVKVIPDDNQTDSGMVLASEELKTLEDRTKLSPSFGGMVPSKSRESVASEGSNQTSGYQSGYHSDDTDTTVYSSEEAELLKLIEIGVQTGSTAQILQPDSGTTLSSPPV
T2 sequence (P35968 806-1171): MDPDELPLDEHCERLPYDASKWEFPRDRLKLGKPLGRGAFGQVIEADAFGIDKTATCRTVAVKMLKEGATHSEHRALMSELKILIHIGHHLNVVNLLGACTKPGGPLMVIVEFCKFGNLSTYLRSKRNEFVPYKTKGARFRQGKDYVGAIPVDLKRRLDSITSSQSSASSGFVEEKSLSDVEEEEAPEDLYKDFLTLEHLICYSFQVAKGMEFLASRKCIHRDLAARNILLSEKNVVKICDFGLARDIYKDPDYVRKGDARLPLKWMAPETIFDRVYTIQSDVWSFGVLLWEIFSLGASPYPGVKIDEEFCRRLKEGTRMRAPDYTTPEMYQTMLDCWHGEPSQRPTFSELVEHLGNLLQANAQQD

SMILES | B-Raf Actual pIC50 [1] | KDR Actual pIC50 [4] | also measured
CC(=O)Nc1nc2ccc(Oc3ccc(F)c(NC(=O)c4cccc(C5(C#N)CC5)c4Cl)c3)nc2s1 [Compound 3-5] |  |  | IC50 [1]: 6.31 nM; IC50 [2]: 6.3 nM; IC50 [3]: 3.4 nM; IC50 [4]: 3.39 nM
CC(=O)Nc1nc2ccc(N(C)c3ccc(F)c(NC(=O)c4cccc(OC(C)(C)C#N)c4)c3)nc2s1 [Compound 3-6] | 7.64 | 8.00 | 
CC(=O)Nc1nc2ccc(N(C)c3ccc(F)c(NC(=O)c4cccc(OC(C)(C)C#N)c4Cl)c3)nc2s1 [Compound 3-7] | 7.35 | 7.85 | 
CN(c1ccc(F)c(NC(=O)c2cccc(OC(C)(C)C#N)c2Cl)c1)c1ccc2nc(NC(=O)C3CC3)sc2n1 [Compound 3-8] |  | 8.12 | 
CC(=O)Nc1nc2cnc(Oc3cc(NC(=O)c4cccc(CCC#N)c4)ccc3C)nc2s1 [Compound 4-1] |  |  | IC50 [1]: 51.3 nM; IC50 [2]: 51 nM; IC50 [3]: 410 nM; IC50 [4]: 407 nM
CC(=O)Nc1nc2cnc(Oc3cc(NC(=O)c4cccc(CC(C)(C)C#N)c4)ccc3C)nc2s1 [Compound 4-2] |  |  | IC50 [1]: 100 nM; IC50 [3]: 300 nM; IC50 [4]: 302 nM
CC(=O)Nc1nc2cnc(Oc3cc(NC(=O)c4cccc(OC(C)(C)C#N)c4)ccc3C)nc2s1 [Compound 4-3] |  |  | IC50 [1]: 72.4 nM; IC50 [2]: 73 nM; IC50 [3]: 510 nM; IC50 [4]: 513 nM
CC(C)(C#N)c1cccc(C(=O)Nc2cccc(Oc3ccc4nc(NC(=O)C5CC5)sc4c3[N+](=O)[O-])c2)c1 [Compound 5-1] | 7.60 | 7.15 | 
CC(C)(C#N)c1cccc(C(=O)Nc2cccc(Oc3ccc4nc(NC(=O)C5CC5)sc4c3C#N)c2)c1 [Compound 5-2] | 7.89 | 7.12 | 
COC(=O)c1c(Oc2cccc(NC(=O)c3cccc(C(C)(C)C#N)c3)c2)ccc2nc(NC(=O)C3CC3)sc12 [Compound 5-3] | 7.92 | 7.48 | 
CC(C)(C#N)c1cccc(C(=O)Nc2cccc(Oc3ccc4nc(NC(=O)C5CC5)sc4c3CO)c2)c1 [Compound 5-4] | 7.62 | 8.13 | 
N#Cc1c(Oc2cccc(NC(=O)Nc3ccccc3C(F)(F)F)c2)ccc2nc(NC(=O)C3CC3)sc12 [Compound 6-1] | 7.72 | 6.92 | 
N#Cc1c(Oc2cccc(NC(=O)Nc3ccc(C(F)(F)F)cc3)c2)ccc2nc(NC(=O)C3CC3)sc12 [Compound 6-2] | 7.74 | 6.48 | 
N#Cc1c(Oc2ccc(F)c(NC(=O)Nc3cccc(C(F)(F)F)c3)c2)ccc2nc(NC(=O)C3CC3)sc12 [Compound 6-3] | 7.31 | 6.14 | 
N#Cc1c(Oc2ccc(F)c(NC(=O)Nc3ccc(C(F)(F)F)cc3)c2)ccc2nc(NC(=O)C3CC3)sc12 [Compound 6-4] | 7.59 | 6.18 | IC50 [2]: > 26 nM
N#Cc1c(Oc2cccc(NC(=O)Cc3ccccc3C(F)(F)F)c2)ccc2nc(NC(=O)C3CC3)sc12 [Compound 6-5] | 7.85 | 7.00 | 
N#Cc1c(Oc2cccc(NC(=O)Cc3cccc(C(F)(F)F)c3)c2)ccc2nc(NC(=O)C3CC3)sc12 [Compound 6-6] | 8.89 | 6.82 | 
N#Cc1c(Oc2cccc(NC(=O)Cc3ccc(C(F)(F)F)cc3)c2)ccc2nc(NC(=O)C3CC3)sc12 [Compound 6-7] | 8.02 | 6.72 | 
N#Cc1c(Oc2ccc(F)c(NC(=O)Cc3cccc(C(F)(F)F)c3)c2)ccc2nc(NC(=O)C3CC3)sc12 [Compound 6-8] | 8.62 | 6.80 | 
CNC(=O)c1nc2ccc(C(=O)c3cccc(NC(=O)c4ccc(C)cc4)c3)cc2[nH]1 [Compound D1] |  |  | Actual pIC50 B-Raf [5]: 6.55; IC50 [5]: 280 nM; Actual pIC50 KDR [6]: 6.00; IC50 [6]: 990 nM
CNC(=O)c1nc2ccc(C(=O)c3cccc(NC(=O)c4cccc(Cl)c4)c3)cc2[nH]1 [Compound D2] |  |  | Actual pIC50 B-Raf [5]: 6.38; IC50 [5]: 420 nM; Actual pIC50 KDR [6]: 6.68; IC50 [6]: 210 nM
CNC(=O)c1nc2ccc(C(=O)c3cccc(NC(=O)c4ccc(Cl)cc4)c3)cc2[nH]1 [Compound D3] |  |  | IC50 [5]: > 5000 nM; Actual pIC50 KDR [6]: 6.02; IC50 [6]: 950 nM

From article PMC4632759, “Studies on [5,6]-Fused Bicyclic Scaffolds Derivatives as Potent Dual B-Raf^V600E/KDR Inhibitors Using Docking and 3D-QSAR Approaches” (International Journal of Molecular Sciences, 2015)
